Measured values as given in patent publication US20250368618A1, “BENZOHETEROCYCLIC SUBSTITUTED TETRAHYDROISOQUINOLINE COMPOUND SALT FORM AND PREPARATION METHOD THEREFOR” (SHANGHAI JEYOU PHARMACEUTICAL CO., LTD., priority 2022, published 2025).

Legend:
Sprague-Dawley rats [1] = assay: Inhibition of phosphate and sodium absorption in intestinal tract of rats after single administration (urinary phosphorus, urinary sodium, fecal form); type: in vivo, rat; details: normal rats
Description: The compound represented by formula (I) was evaluated by measuring the concentrations of urinary phosphorus and urinary sodium, as well as fecal form.
(§1) Six-week-old Sprague-Dawley rats were purchased from Beijing Vital River Laboratory Animal Technology Co., Ltd. Two rats in each cage were placed in the SPF-grade animal room, and the rats were acclimatized for about one week. Throughout the study, the animals were given ad libitum access to feed and water, and the light cycle was 12 h of light and 12 h of darkness. Animal groups: vehicle group, n=5; tenapanor 0.3 mg/kg group, n=5; compound represented by formula (I) 0.03 mg/kg group, n=5; compound represented by formula (I) 0.1 mg/kg group, n=5; compound represented by formula (I) 0.3 mg/kg group, n=5; and compound represented by formula (I) 1.0 mg/kg group, n=5.
On the day of the experiment, the test compound or vehicle (0.5% Tween 80+99.5% distilled water) was administered intragastrically to the animals after 8 h of fasting. Then, the animals were transferred into metabolism cages for single-cage feeding, and the feed was restored. Sixteen hours after administration, urine samples were collected, food consumption was recorded, and fecal form in the collection funnel was evaluated by two independent observations. Fecal form scoring criteria: 1. normal pellets; 2. slightly soft feces (pellets adhered to the side wall of the collector due to moisture); 3. soft feces (loss of normal shape of the pellets); 4. loose and amorphous (complete loss of shape, accompanied by a blot pattern); and 5. diarrhea (watery feces). Fecal form score (FFS) in rats was determined by averaging two independent observation scores for all rats in the same group (n=5); and the mean value for the vehicle group was 1.
The urine was centrifuged at 4° C. at 3220 g for 5 min, and the urinary phosphorus concentration (phosphomolybdic acid ultraviolet endpoint colorimetric method) and urinary sodium concentration (ion selective electrode method) were measured.
(§2) The results were expressed as mean±standard error (Means±SEM). The urinary phosphorus excretion amount (or urinary sodium excretion amount) in the rats was normalized and corrected against the respective dietary phosphorus (or sodium) intake. The formula was as follows: normalized correction value of urinary phosphorus excretion amount (expressed as nP)=urinary phosphorus excretion amount+dietary phosphorus intake; normalized correction value of urinary sodium excretion amount (expressed as nNa)=urinary sodium excretion amount+dietary sodium intake; one-way analysis of variance was adopted; and fecal form score was verified by the non-parametric test. *, p<0.05; **, p<0.01; ***, p<0.001; ****, p<0.0001.

Sprague-Dawley rats [2] = assay: Effect of multiple administrations on serum phosphorus concentration in rats (serum phosphorus, 24-h urinary phosphorus and sodium, fecal form); type: in vivo, rat; details: for 24-h nP, course: after 15 days; for serum phosphorus concentration: intragastric twice a day
Description: as §1, with “The compound represented by formula (I) was evaluated by measuring the serum phosphorus concentration, concentrations of urinary phosphorus and urinary sodium, and fecal form in rats. Six-week-old” for “Six-week-old”, “Tenapanor 0.05 mg/kg,” for “tenapanor 0.3 mg/kg group,”, “0.01 mg/kg,” for “0.03 mg/kg group,”, “0.05 mg/kg,” for “0.1 mg/kg group,”, “0.5 mg/kg,” for “0.3 mg/kg group,”, “mg/kg,” for “mg/kg group,”
After the start of the experiment, the feeding rhythm of the rats was adjusted to diurnal feeding in a manner of overnight fasting for 16 h and restoring feed for 8 h during the day. After the start of administration, the test compound or vehicle (0.5% Tween 80+99.5% distilled water) was administered intragastrically twice a day during the feeding period, with an interval of 4 h, for 14 consecutive days. The body weight of animals and food consumption were measured daily. The serum phosphorus concentration (including baseline values before the administration), 24-hour urinary phosphorus excretion amount, and 24-hour urinary sodium excretion amount were measured 1-2 times a week, and fecal form in the collection funnel was scored (fecal form was assessed by two independent observations). Fecal form scoring criteria: 1. normal pellets; 2. slightly soft feces (pellets adhered to the side wall of the collector due to moisture); 3. soft feces (loss of normal shape of the pellets); 4. loose and amorphous (complete loss of shape, accompanied by a blot pattern); and 5. diarrhea (watery feces). Fecal form score (FFS) in rats was determined by averaging two independent observation scores for all rats in the same group (n=5); and the mean value for the vehicle group was 1.
After being left to stand at room temperature for 2 h, the blood was centrifuged at 4° C. at 4500 g for 10 min; the urine was centrifuged at 4° C. at 3220 g for 5 min; and the serum phosphorus concentration and urinary phosphorus concentration (phosphomolybdic acid ultraviolet endpoint colorimetric method), as well as urinary sodium concentration (indirect ion electrode method) were measured.
as §2, with “error (Means±SEM), n=5 animals/group.” for “error (Means±SEM).”, “intake; two-way” for “intake; one-way”, “p<0.05; **” for “p<0.05; **,”, “p<0.01; ***” for “p<0.01; ***,”

- fecal form score (Sprague-Dawley rats [2]; after 1 day of treatment, 0.05, 0.5 and 1.0 mg/kg, vs vehicle control): increased significantly
- loose feces, severity (Sprague-Dawley rats [2]; high-dose groups 0.5 mg/kg and 1.0 mg/kg): more severe loose feces
- frequency of loose feces observed (Sprague-Dawley rats [2]; high-dose groups 0.5 mg/kg and 1.0 mg/kg, as the administration continued): decreased
- loose feces, occurrence (Sprague-Dawley rats [2]; low dose 0.01 mg/kg): No rats had loose feces
SMILES: CN1Cc2c(Cl)cc(Cl)cc2[C@H](c2ccc3cn(CCOCCOCCNC(=O)NCCCCNC(=O)NCCOCCOCCn4cc5ccc([C@@H]6CN(C)Cc7c(Cl)cc(Cl)cc76)cc5n4)nc3c2)C1 [compound represented by formula (I)]
- urinary phosphorus excretion amount (nP) (Sprague-Dawley rats [1]; single intragastric administration, 0.03, 0.1, 0.3, 1.0 mg/kg, urine 16 h after administration, dose dependence): dose-effect relationship
- water content in the feces (fecal form score) (Sprague-Dawley rats [1]; single intragastric administration, 0.03-1.0 mg/kg, 16 h): tendency to increase with the increase in the dose
- urinary phosphorus excretion amount (nP) (Sprague-Dawley rats [1]; single intragastric administration, doses of 0.3 mg/kg and 1.0 mg/kg, urine 16 h after administration): significantly reduce
- urinary phosphorus excretion amount (nP), comparison with Tenapanor (Sprague-Dawley rats [1]; single intragastric administration, same dose 0.3 mg/kg of both): better than Tenapanor
- urinary sodium excretion amount (nNa) (Sprague-Dawley rats [1]; single intragastric administration, urine 16 h after administration): significantly reduce
- 24-h nP (Sprague-Dawley rats [2]; after 1 day of treatment, 1.0 mg/kg, vs vehicle): significantly reduced
- 24-h nP (urinary phosphorus excretion amount normalized to dietary phosphorus intake) (Sprague-Dawley rats [2]; after 1 day of treatment, 0.01, 0.05, 0.5 and 1.0 mg/kg, vs vehicle): decreasing trend
- 24-h nNa (urinary sodium excretion amount normalized to dietary sodium intake) (Sprague-Dawley rats [2]; after 1 day of treatment, 0.01, 0.05, 0.5 and 1.0 mg/kg, vs vehicle control): significantly reduced
- 24-h nP, dose dependence (Sprague-Dawley rats [2]; after 1 day of treatment, 0.01-1.0 mg/kg): The higher the dose, the lower the nP
- 24-h nNa, course (Sprague-Dawley rats [2]; after 10 days of treatment, 0.01 mg/kg and 0.05 mg/kg): rising trend
- 24-h nP (Sprague-Dawley rats [2]; after 10 days of treatment, 0.01, 0.05, 0.5 and 1.0 mg/kg, vs vehicle): significantly reduced
- 24-h nP, course (Sprague-Dawley rats [2]): tended to be stable
- 24-h nP, course (Sprague-Dawley rats [2]; low-dose group 0.01 mg/kg): rising trend
- serum phosphorus concentration (Sprague-Dawley rats [2]; after 4 days of treatment, 0.5 mg/kg or 1.0 mg/kg, vs vehicle control): significantly reduced
- serum phosphorus concentration (Sprague-Dawley rats [2]; after 10 days of treatment, 0.01, 0.05, 0.5 and 1.0 mg/kg, vs vehicle control): significantly reduced
- serum phosphorus concentration, course (Sprague-Dawley rats [2]; twice a day, after 10 days, groups other than the highest dose 1.0 mg/kg): tended to be stable
